The record followed here is patent publication US20090036450A1, “PYRAZOLE COMPOUNDS AND USE THEREOF” (JAPAN TOBACCO, INC., priority 2006, published 2009).

Bounds are passed on as bounds.

The assay addresses T1, human liver glycogen phosphorylase (Homo sapiens, UniProt P06737).
T1 construct: made in house; host or cells: Sf9 insect cells (suspension of disrupted cells, diluted in BES buffer, not purified)
T1 sequence (P06737 1-847): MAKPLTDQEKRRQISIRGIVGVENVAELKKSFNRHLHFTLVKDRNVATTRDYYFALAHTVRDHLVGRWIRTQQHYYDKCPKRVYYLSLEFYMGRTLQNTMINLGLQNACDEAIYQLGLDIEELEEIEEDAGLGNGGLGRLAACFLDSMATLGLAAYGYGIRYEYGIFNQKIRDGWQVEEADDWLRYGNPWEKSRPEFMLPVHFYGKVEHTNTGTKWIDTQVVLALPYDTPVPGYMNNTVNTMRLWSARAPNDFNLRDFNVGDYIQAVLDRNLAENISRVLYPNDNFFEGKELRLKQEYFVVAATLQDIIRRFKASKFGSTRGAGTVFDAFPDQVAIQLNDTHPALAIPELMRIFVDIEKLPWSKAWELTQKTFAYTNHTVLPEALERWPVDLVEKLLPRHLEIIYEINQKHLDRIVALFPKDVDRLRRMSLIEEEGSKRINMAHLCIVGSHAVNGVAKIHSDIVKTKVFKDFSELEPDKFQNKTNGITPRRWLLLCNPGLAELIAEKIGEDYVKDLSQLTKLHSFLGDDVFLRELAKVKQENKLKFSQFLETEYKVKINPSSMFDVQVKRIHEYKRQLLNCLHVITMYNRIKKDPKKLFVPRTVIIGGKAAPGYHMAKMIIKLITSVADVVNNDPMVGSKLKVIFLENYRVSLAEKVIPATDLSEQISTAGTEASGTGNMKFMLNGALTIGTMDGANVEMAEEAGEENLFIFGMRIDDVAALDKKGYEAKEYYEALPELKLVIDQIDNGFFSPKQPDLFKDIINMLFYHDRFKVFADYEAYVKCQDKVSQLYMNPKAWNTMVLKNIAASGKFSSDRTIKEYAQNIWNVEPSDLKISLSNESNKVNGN
Put plainly: Liver glycogen phosphorylase activity, forward reaction system (NADPH detection at 340 nm). Type of assay: biochemical. The following applies: enzyme inhibitory activity against recombinant human liver glycogen phosphorylase (Sf9 cell lysate), room temperature, 75 minutes. On the procedure: The glycogen phosphorylase activity was determined by a method using a forward reaction system.
The following method was used to determine the glycogen phosphorylase activity using a forward reaction system. Glucose-1-phosphate generated from glycogen by glycogen phosphorylase was converted to glucono-δ-lactone-6-phosphate by transphosphorylation and dehydrogenation reactions using phosphoglucomutase and glucose-6-phosphate dehydrogenase (G6PDH). At this time, NADPH generated from NADP in the dehydrogenation reaction by G6PDH was detected.
An enzyme solution of human liver glycogen phosphorylase was obtained by diluting with 100 mmol/L BES buffer (pH 6.8, containing 2 mmol/L EDTA) a suspension disrupted Sf9 cells in which a recombinant human liver glycogen phosphorylase was forcibly expressed. Phosphate buffer (16 mmol/L KH2PO4, containing 24 mmol/L Na2HPO4) was used as a substrate solution. A mixture of 8 U/mL phosphoglucomutase and 60 U/mL G6PDH was prepared with BES buffer. A reaction buffer (1.4 mmol/L NADP, 30 mmol/L MgCl2, 8 μmol/L glucose-1,6-diphosphate, 8 mg/mL glycogen, 40 mmol/L BES, containing 0.8 mmol/L EDTA) and a glucose solution (75 mmol/L glucose and 100 mmol/L BES, containing 2 mmol/L EDTA) were prepared. A test substance was dissolved in 1% DMSO aqueous solution.
To a mixture of the glucose solution (20 μL), the substrate solution (20 μL), the reaction buffer (100 μL), and the test substance (20 μL), the recombinant human liver glycogen phosphorylase solution (20 μL), and a mixture (20 μL) of phosphoglucomutase and G6PDH were added to initiate an enzymatic reaction. To a control, 1% DMSO aqueous solution was added instead of the test substance. A solution to which the substrate was not added was used as a blank. After initiation of the reaction, absorbance at 340 nm was measured immediately. The reaction was performed at room temperature for 75 minutes, and then absorbance at 340 nm was measured again. The enzyme activity was obtained by deducting the change in absorbance of the blank for 75 minutes from the change in absorbance over 75 minutes. The inhibition rate (%) of the test substance was calculated by “(1−(enzyme activity of test substance)/(enzyme activity of control))×100”.
“IC50” represents an enzyme inhibitory activity against human liver glycogen phosphorylase.

By IC50 is commonly meant the concentration needed to halve the response being measured. As for `COCc1nc(C)c(CNC(=O)c2cc(NC(=O)c3cc(F)c(F)cc3Cl)[nH]n2)o1` [Example 1-45, 5-(2-chloro-4,5-difluoro-benzoylamino)-1H-pyrazole-3-carboxylic acid (2-methoxymethyl-4-methyl-oxazol-5-ylmethyl)-amide], the IC50 was under 100 nM. As for `Cc1nc(COCC(F)(F)F)oc1CNC(=O)c1cc(NC(=O)c2cc(F)c(F)cc2Cl)[nH]n1` [Example 1-46], the figure is under 100 nM; as for `Cc1nc(COCc2ccccc2)oc1CNC(=O)c1cc(NC(=O)c2cc(F)c(F)cc2Cl)[nH]n1` [Example 1-47, 5-(2-chloro-4,5-difluoro-benzoylamino)-1H-pyrazole-3-carboxylic acid (2-benzyloxymethyl-4-methyl-oxazol-5-ylmethyl)-amide], under 100 nM. With `CCOC(=O)COCc1nc(C)c(CNC(=O)c2cc(NC(=O)c3cc(F)c(F)cc3Cl)[nH]n2)o1` [Example 1-48, 5-(2-chloro-4,5-difluoro-benzoylamino)-1H-pyrazole-3-carboxylic acid (2-ethoxycarbonylmethoxymethyl-4-methyl-oxazol-5-ylmethyl)-amide] the figure was under 100 nM; with `Cc1nc(Sc2ccccc2)oc1CNC(=O)c1cc(NC(=O)c2cc(F)c(F)cc2Cl)[nH]n1` [Example 1-49, 5-(2-chloro-4,5-difluoro-benzoylamino)-1H-pyrazole-3-carboxylic acid (4-methyl-2-phenylsulfanyl-oxazol-5-ylmethyl)-amide], under 100 nM. With `COC(=O)c1nc(C)c(CNC(=O)c2cc(NC(=O)c3cc(F)c(F)cc3Cl)[nH]n2)o1` [Example 1-50, 5-(2-chloro-4,5-difluoro-benzoylamino)-1H-pyrazole-3-carboxylic acid (2-methoxycarbonyl-4-methyl-oxazol-5-ylmethyl)-amide] the figure was under 100 nM.

In the case of `CCOC(=O)c1oc(CNC(=O)c2cc(NC(=O)c3cc(F)c(F)cc3Cl)[nH]n2)nc1C` [Example 1-51, 5-(2-chloro-4,5-difluoro-benzoylamino)-1H-pyrazole-3-carboxylic acid (5-ethoxycarbonyl-4-methyl-oxazol-2-ylmethyl)-amide], the IC50 is under 100 nM. Consider `O=C(NCc1nnc(-c2ccc(Cl)cc2)o1)c1cc(NC(=O)c2cc(F)c(F)cc2Cl)[nH]n1` [Example 1-52, 5-(2-chloro-4,5-difluoro-benzoylamino)-1H-pyrazole-3-carboxylic acid [5-(4-chloro-phenyl)-[1,3,4]oxadiazol-2-ylmethyl]-amide], for which the IC50 was under 100 nM. As for `Cc1ccccc1-c1nnc(CNC(=O)c2cc(NC(=O)c3cc(F)c(F)cc3Cl)[nH]n2)o1` [Example 1-53, 5-(2-chloro-4,5-difluoro-benzoylamino)-1H-pyrazole-3-carboxylic acid [5-(2-methyl-phenyl)-[1,3,4]oxadiazol-2-ylmethyl]-amide], the figure is under 100 nM; as for `CN(C)c1ccc(-c2nnc(CNC(=O)c3cc(NC(=O)c4cc(F)c(F)cc4Cl)[nH]n3)o2)cc1` [Example 1-54, 5-(2-chloro-4,5-difluoro-benzoylamino)-1H-pyrazole-3-carboxylic acid [5-(4-dimethylamino-phenyl)-[1,3,4]oxadiazol-2-ylmethyl]-amide], under 100 nM; as for `O=C(NCc1nnc(-c2ccc(C(F)(F)F)cc2)o1)c1cc(NC(=O)c2cc(F)c(F)cc2Cl)[nH]n1` [Example 1-55, 5-(2-chloro-4,5-difluoro-benzoylamino)-1H-pyrazole-3-carboxylic acid [5-(4-trifluoromethyl-phenyl)-[1,3,4]oxadiazol-2-ylmethyl]-amide], over 300 nM.

With `O=C(NCc1nnc(-c2cccc([N+](=O)[O-])c2)o1)c1cc(NC(=O)c2cc(F)c(F)cc2Cl)[nH]n1` [Example 1-56, 5-(2-chloro-4,5-difluoro-benzoylamino)-1H-pyrazole-3-carboxylic acid [5-(3-nitro-phenyl)-[1,3,4]oxadiazol-2-ylmethyl]-amide], the concentration for half-maximal inhibition (IC50) was under 100 nM.

Take `O=C(NCc1nnc(-c2cccc(O)c2)o1)c1cc(NC(=O)c2cc(F)c(F)cc2Cl)[nH]n1` [Example 1-57, 5-(2-chloro-4,5-difluoro-benzoylamino)-1H-pyrazole-3-carboxylic acid [5-(3-hydroxy-phenyl)-[1,3,4]oxadiazol-2-ylmethyl]-amide]: the 50% inhibitory concentration (IC50) was under 100 nM.

As to `O=C(NCc1nnc(-c2ccccc2O)o1)c1cc(NC(=O)c2cc(F)c(F)cc2Cl)[nH]n1` [Example 1-58, 5-(2-chloro-4,5-difluoro-benzoylamino)-1H-pyrazole-3-carboxylic acid [5-(2-hydroxy-phenyl)-[1,3,4]oxadiazol-2-ylmethyl]-amide], the IC50 is under 100 nM. With `O=C(NCc1nnc(-c2cccc(Cl)c2)o1)c1cc(NC(=O)c2cc(F)c(F)cc2Cl)[nH]n1` [Example 1-59, 5-(2-chloro-4,5-difluoro-benzoylamino)-1H-pyrazole-3-carboxylic acid [5-(3-chloro-phenyl)-[1,3,4]oxadiazol-2-ylmethyl]-amide] the figure was under 100 nM; with `COc1cccc(-c2nnc(CNC(=O)c3cc(NC(=O)c4cc(F)c(F)cc4Cl)[nH]n3)o2)c1` [Example 1-60, 5-(2-chloro-4,5-difluoro-benzoylamino)-1H-pyrazole-3-carboxylic acid [5-(3-methoxy-phenyl)-[1,3,4]oxadiazol-2-ylmethyl]-amide], under 100 nM; with `COc1ccccc1-c1nnc(CNC(=O)c2cc(NC(=O)c3cc(F)c(F)cc3Cl)[nH]n2)o1` [Example 1-61, 5-(2-chloro-4,5-difluoro-benzoylamino)-1H-pyrazole-3-carboxylic acid [5-(2-methoxy-phenyl)-[1,3,4]oxadiazol-2-ylmethyl]-amide], under 100 nM. With `CCOC(=O)Cc1nnc(CNC(=O)c2cc(NC(=O)c3cc(F)c(F)cc3Cl)[nH]n2)o1` [Example 1-62] the figure was 100 to 300 nM; with `Cc1c(CNC(=O)c2cc(NC(=O)c3cc(F)c(F)cc3Cl)[nH]n2)nnn1Cc1ccc(Cl)cc1` [Example 1-63, 5-(2-chloro-4,5-difluoro-benzoylamino)-1H-pyrazole-3-carboxylic acid [1-(4-chloro-benzyl)-5-methyl-1H-[1,2,3]triazol-4-ylmethyl]-amide], under 100 nM. As for `Cc1ccc(Cn2nnc(CNC(=O)c3cc(NC(=O)c4cc(F)c(F)cc4Cl)[nH]n3)c2C)cc1` [Example 1-64, 5-(2-chloro-4,5-difluoro-benzoylamino)-1H-pyrazole-3-carboxylic acid [5-methyl-1-(4-methyl-benzyl)-1H-[1,2,3]triazol-4-ylmethyl]-amide], the figure is under 100 nM; as for `Cc1nc(Cn2nnc(CNC(=O)c3cc(NC(=O)c4cc(F)c(F)cc4Cl)[nH]n3)c2C)cs1` [Example 1-65, 5-(2-chloro-4,5-difluoro-benzoylamino)-1H-pyrazole-3-carboxylic acid [5-methyl-1-(2-methyl-thiazol-4-ylmethyl)-1H-[1,2,3]triazol-4-ylmethyl]-amide], under 100 nM. Turning to `Cc1cccc(-n2nc(C)c(CNC(=O)c3cc(NC(=O)c4cc(F)c(F)cc4Cl)[nH]n3)c2C)c1` [Example 1-66, 5-(2-chloro-4,5-difluoro-benzoylamino)-1H-pyrazole-3-carboxylic acid [3,5-dimethyl-1-(3-methyl-phenyl)-1H-pyrazol-4-ylmethyl]-amide], the concentration for half-maximal inhibition (IC50) was under 100 nM.
